Key:
[1] = target: Recombinant human c-KIT kinase (Homo sapiens (Human), UniProt P10721); assay: c-KIT kinase chemiluminescence assay (ADP-Glo); type: biochemical; details: ATP 50 μM
In short: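 ADP formed by c-KIT on polyEY over 2 h at RT (after 30 min enzyme preincubation; Tris pH 7.5, MgCl2, BSA, DTT buffer) was detected by ADP-Glo luminescence. IC50 and Hill slope were fitted to control-normalized activity across compound concentrations.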

M-07e cells = assay: M-07e cellular assay (SCF-mediated cell proliferation); type: cell-based; details: Homo sapiens, 72 hours, CellTiter Glo
In short: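 CellTiter Glo luminescence after 72 h compound exposure in SCF (EC90)-stimulated M-07e cells expressing endogenous human c-KIT.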

Sequence of Recombinant human c-KIT kinase (P10721 26-976): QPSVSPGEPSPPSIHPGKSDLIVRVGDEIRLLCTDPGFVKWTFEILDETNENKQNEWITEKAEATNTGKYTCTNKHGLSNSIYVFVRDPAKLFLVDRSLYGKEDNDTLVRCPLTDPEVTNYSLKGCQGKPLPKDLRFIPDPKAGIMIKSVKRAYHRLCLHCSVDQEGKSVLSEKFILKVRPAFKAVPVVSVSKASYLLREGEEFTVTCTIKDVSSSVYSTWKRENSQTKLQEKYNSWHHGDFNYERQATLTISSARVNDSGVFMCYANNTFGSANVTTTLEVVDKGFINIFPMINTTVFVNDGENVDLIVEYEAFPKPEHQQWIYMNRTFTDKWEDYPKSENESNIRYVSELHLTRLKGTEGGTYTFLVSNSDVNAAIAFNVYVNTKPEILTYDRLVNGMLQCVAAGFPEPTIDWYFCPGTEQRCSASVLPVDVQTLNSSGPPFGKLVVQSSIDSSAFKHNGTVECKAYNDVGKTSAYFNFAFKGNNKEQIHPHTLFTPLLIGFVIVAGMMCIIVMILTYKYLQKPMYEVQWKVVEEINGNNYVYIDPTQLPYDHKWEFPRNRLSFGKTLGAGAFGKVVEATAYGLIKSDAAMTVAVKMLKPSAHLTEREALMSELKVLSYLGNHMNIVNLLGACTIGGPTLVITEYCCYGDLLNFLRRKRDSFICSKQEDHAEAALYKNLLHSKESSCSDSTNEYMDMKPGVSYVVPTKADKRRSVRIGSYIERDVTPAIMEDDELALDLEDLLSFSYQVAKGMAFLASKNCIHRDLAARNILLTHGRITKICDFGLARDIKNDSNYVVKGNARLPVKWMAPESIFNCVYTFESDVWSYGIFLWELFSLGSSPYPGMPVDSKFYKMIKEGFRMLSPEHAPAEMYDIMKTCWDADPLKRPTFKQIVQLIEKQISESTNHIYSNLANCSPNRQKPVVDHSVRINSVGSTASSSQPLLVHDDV

SMILES	IC50 [1] [nM]	EC50 (M-07e cells) [nM]
Cc1ccc(-c2noc([C@H]3C[C@@H]3F)n2)cc1NC(=O)c1cnn2ccc(-c3cnn(C4COC4)c3)cc12 [Example 136]	< 100	< 100
Cc1ccc(-c2noc([C@H]3C[C@@H]3F)n2)cc1NC(=O)c1cnc(-c2ccc3c(c2)O[C@@H](C)CN3)o1 [Example 308-53]	100 to 1000	100 to 1000
Cc1ccc(-c2noc([C@H]3C[C@@H]3F)n2)cc1NC(=O)c1cnc(-c2ccc(-c3cnn(C)c3)cc2)o1 [Example 308-16]	100 to 1000	100 to 1000
Cc1ccc(-c2noc([C@H]3C[C@@H]3F)n2)cc1NC(=O)c1cnn2ccc(N3C[C@@H](CS(C)(=O)=O)[C@@H]3C)cc12 [Example 174]	< 100	< 100
Cc1ccc(-c2noc([C@H]3C[C@@H]3F)n2)cc1NC(=O)c1cnn2ccc(-c3c(C)nc(N4CC(F)(F)C4)nc3C)cc12 [Example 171-13]	100 to 1000	100 to 1000
Cc1ccc(-c2noc([C@H]3C[C@@H]3F)n2)cc1NC(=O)c1cnn2ccc(N3CC4(C3)CC(O)(C(F)F)C4)cc12 [Example 232]	< 100	< 100
Cc1ncc(-c2noc([C@H]3C[C@@H]3C(F)F)n2)cc1NC(=O)c1cnn2ccc(N3CC4(C3)CC(O)(C(F)F)C4)cc12 [Example 281-64]	< 100	< 100
C#Cc1ccn2ncc(C(=O)Nc3cc(-c4noc([C@H]5C[C@@H]5F)n4)ccc3C)c2c1 [Example 108]	< 100	< 100
Cc1ccc(-c2noc([C@H]3C[C@@H]3F)n2)cc1NC(=O)c1cnc(-c2ccc3[nH]c4c(c3c2)CCN(C(=O)OC(C)(C)C)C4)o1 [Example 308-56]	100 to 1000	100 to 1000
Cc1ccc(-c2noc([C@H]3C[C@@H]3F)n2)cc1NC(=O)c1cnc(-c2c(C)nn(CC(C)(C)O)c2C)o1 [Example 308-7]	> 1000	> 1000
COC(=O)N1C[C@@H](c2nc(-c3cnc(C)c(NC(=O)c4cnn5ccc(N6CC7(C6)CC(O)(C(F)F)C7)cc45)c3)no2)[C@@H]1C [Example 281-17]	100 to 1000	< 100
Cc1nccc(-c2ccn3ncc(C(=O)Nc4cc(-c5noc([C@H]6C[C@@H]6F)n5)ccc4C)c3c2)n1 [Example 171]	< 100	< 100
Cc1ccc(-c2noc([C@H]3C[C@@H]3F)n2)cc1NC(=O)c1cnc(C)n1C [Example 4]	> 1000	> 1000
Cc1ccc(-c2noc([C@H]3C[C@@H]3F)n2)cc1NC(=O)c1cnc(-c2ccc(NC(=O)OC(C)(C)C)nc2)o1 [Example 298]	> 1000	100 to 1000
CC(=O)Nc1ccc(-c2ncc(C(=O)Nc3cc(-c4noc([C@H]5C[C@@H]5F)n4)ccc3C)o2)cn1 [Example 308-20]	> 1000	100 to 1000
Cc1cc(C)c(-c2ccn3ncc(C(=O)Nc4cc(-c5noc([C@H]6C[C@@H]6F)n5)ccc4C)c3c2)cn1 [Example 171-26]	< 100	< 100

SMILES	IC50 [1] [nM]	EC50 (M-07e cells) [nM]
Cc1ccc(-c2noc([C@H]3C[C@@H]3F)n2)cc1NC(=O)c1cnn2ccc(NC(=O)c3ccccc3)cc12 [Example 93]	100 to 1000	100 to 1000
Cc1ccc(-c2noc([C@H]3C[C@@H]3F)n2)cc1NC(=O)c1cnn2ccc(NC(=O)OC(C)(C)C)cc12 [Example 90]	100 to 1000	100 to 1000
CC(=O)N1CCC(c2nc(-c3cnc(C)c(NC(=O)c4cnn5ccc(N6CC7(C6)CC(O)(C(F)F)C7)cc45)c3)no2)CC1 [Example 281-72]	> 1000	> 1000
Cc1ccc(-c2noc([C@H]3C[C@@H]3F)n2)cc1NC(=O)c1cnn2ccc(N3CCCC4(COC4)C3)cc12 [Example 201]	< 100	< 100
Cc1ccc(-c2noc([C@H]3C[C@@H](C(F)(F)F)C3)n2)cc1NC(=O)c1cnc(-c2ccc3c(c2)CC(=O)N3)o1 [Example 308-2]	< 100	< 100
[2H]C([2H])([2H])c1ccc(-c2noc([C@H]3C[C@@H](OC(F)F)C3)n2)cc1NC(=O)c1cnn2ccc(N3CC4(COC4)C3)cc12 [Example 281-4]	< 100	< 100
Cc1ccc(-c2noc([C@H]3C[C@@H]3F)n2)cc1NC(=O)c1cnn2cc(F)c(-c3c(C)nn(C(F)F)c3C)cc12 [Example 166]	> 1000	100 to 1000
Cc1ccc(-c2noc([C@H]3C[C@@H]3F)n2)cc1NC(=O)c1cnn2ccc(-c3cnc(C(F)(F)F)nc3)cc12 [Example 157]	100 to 1000	100 to 1000
Cc1ccc(-c2noc([C@H]3C[C@@H]3F)n2)cc1NC(=O)c1cnc(-c2ccc3c(c2)NC(=O)CO3)o1 [Example 308-52]	100 to 1000	100 to 1000
Cc1ccc(-c2noc([C@H]3C[C@@H]3F)n2)cc1NC(=O)c1cnn2cc(-c3cn(C[C@H](C)O)nn3)ccc12 [Example 117]	< 100	< 100
Cc1ccc(-c2noc([C@H]3C[C@@H]3F)n2)cc1NC(=O)c1cnn2ccc(-c3c(C)nc(N)nc3C)cc12 [Example 171-6]	100 to 1000	< 100
Cc1ccc(-c2noc([C@H]3C[C@@H]3F)n2)cc1NC(=O)c1cnn2ccc(NC(=O)NC3CC3)cc12 [Example 96]	100 to 1000	100 to 1000
Cc1ccc(-c2noc([C@H]3C[C@@H]3F)n2)cc1NC(=O)c1cnn2ccc(N3CC4(CNC(=O)C4)C3)cc12 [Example 178]	< 100	< 100
Cc1ccc(-c2noc([C@H]3C[C@@H]3F)n2)cc1NC(=O)c1cnn2ccc(-c3nnc(N)nc3C)cc12 [Example 171-1]	< 100	< 100
COC(=O)N1CC(c2nc(-c3ccc(C)c(NC(=O)c4cnn5cc(-c6cn(C(F)F)nn6)ccc45)c3)no2)C1 [Example 132-15]	< 100	< 100

Further lines, with some results ahead:

IC50 [1] [nM]	SMILES	EC50 (M-07e cells) [nM]
100 to 1000	Cc1ccc(-c2noc([C@H]3C[C@@H](OC(F)(F)F)C3)n2)cc1NC(=O)c1cnn2ccc(N3CC4(CN(C(=O)OC(C)(C)C)C4)C3)cc12 [Example 258]	100 to 1000
< 100	Cc1ccc(-c2noc([C@H]3C[C@@H]3F)n2)cc1NC(=O)c1cnn2ccc(-c3nnn(CC(C)(C)O)n3)cc12 [Example 132]	< 100
< 100	Cc1ccc(-c2noc([C@H]3C[C@@H]3F)n2)cc1NC(=O)c1cnn2ccc(N3CC4(C3)CS(=O)(=O)C4)cc12 [Example 187]	< 100
100 to 1000	COC(=O)Nc1ccc(-c2ncc(C(=O)Nc3cc(-c4noc([C@H]5C[C@@H]5F)n4)ccc3C)o2)cc1 [Example 308-48]	100 to 1000
100 to 1000	Cc1ccc(-c2noc([C@H]3CC3(F)F)n2)cc1NC(=O)c1cnn2ccc(N3CC4(COC4)C3)cc12 [Example 281-7]	< 100
> 1000	Cc1ncc(-c2ncc(C3CC3)cn2)cc1NC(=O)c1cnn2ccc(-c3c(C)nc(N)nc3C)cc12 [Example 371-1]	100 to 1000
100 to 1000	Cc1sc(-c2noc(C3CN(C(=O)[C@H]4C[C@@H]4F)C3)n2)cc1NC(=O)c1cnn2ccc(N3CC4(C3)CC(O)(C(F)F)C4)cc12 [Example 281-127]	> 1000
> 1000	CC(=O)N1CCC(c2nc(-c3cnc(C)c(NC(=O)c4cnn5ccc(N6CC7(COC7)C6)cc45)c3)no2)CC1 [Example 281-75]	> 1000
100 to 1000	Cc1ccc(-c2noc([C@H]3C[C@@H]3F)n2)cc1NC(=O)c1cnn2ccc(N3CCN(C(=O)OC(C)(C)C)C[C@H]3C)cc12 [Example 190]	100 to 1000
< 100	C/C=C/c1ccn2ncc(C(=O)Nc3cc(-c4noc([C@H]5C[C@@H]5F)n4)ccc3C)c2c1 [Example 69]	< 100
100 to 1000	Cc1ccc(-c2noc([C@H]3C[C@@H](OC(F)F)C3)n2)nc1NC(=O)c1cnn2ccc(N3CC4(COC4)C3)cc12 [Example 266]	100 to 1000
< 100	Cc1ccc(-c2noc([C@H]3C[C@@H]3F)n2)cc1NC(=O)c1cnn2ccc(-c3c(C)nn(CCN4CCOCC4)c3C)cc12 [Example 162]	< 100
> 1000	Cc1ccc(-c2noc([C@H]3C[C@@H]3F)n2)cc1NC(=O)c1cnc(N2CC(C(=O)OC(C)(C)C)C2)s1 [Example 98-3]	> 1000
< 100	Cc1ccc(-c2noc([C@H]3C[C@@H]3F)n2)cc1NC(=O)c1cnn2ccc(OC3COC3)cc12 [Example 219]	< 100
100 to 1000	Cc1ccc(-c2noc([C@H]3C[C@@H]3F)n2)cc1NC(=O)c1cnn2cc(F)c(N3CC4(COC4)C3)cc12 [Example 206]	100 to 1000
< 100	Cc1ccc(-c2noc([C@H]3C[C@@H]3F)n2)cc1NC(=O)c1cnn2ccc(N3CC(C(=O)N4CC(F)(F)C4)C3)cc12 [Example 241-11]	< 100
< 100	Cc1ccc(-c2noc([C@H]3C[C@@H]3F)n2)cc1NC(=O)c1cnn2ccc(N3CC4CC3C4(C)C)cc12 (some centres unmarked) [Example 228]	100 to 1000
100 to 1000	Cc1ccc(-c2noc([C@H]3C[C@@H]3F)n2)cc1NC(=O)c1cnc(-c2ccc3c(c2)CCC(=O)N3)o1 [Example 308-15]	100 to 1000
< 100	Cc1ccc(-c2noc([C@H]3C[C@@H]3F)n2)cc1NC(=O)c1cnn2ccc(Cl)cc12 [Example 59]	100 to 1000
< 100	Cc1ccc(-c2noc([C@H]3C[C@@H]3F)n2)cc1NC(=O)c1cnn2ccc(-c3cn(C45CC(F)(C4)C5)nn3)cc12 [Example 124]	< 100
100 to 1000	Cc1ncc(-c2noc([C@H]3CC3(F)F)n2)cc1NC(=O)c1cnn2ccc(N3CC4(C3)CC(O)(C(F)F)C4)cc12 [Example 281-89]	< 100

From patent US20250059174A1, “Pharmaceutical Compounds and Compositions as C-Kit Kinase Inhibitors” (Enanta Pharmaceuticals, Inc., priority 2023, published 2025)
